Patent US20250282827A1, “LIPIDATED POLYMYXIN ANALOGUES” (priority 2021, published 2025)
In brackets after ≈: the same amount, converted by molar mass. Where two headings read alike, the source gives them in different places. Positions of bridges follow the written chain, without caps; N, C: chain ends. Non-standard residues stand in square brackets, D forms with d. Residues, ends and D or L forms follow the SMILES beside them. *: point of attachment. CH2CH2OBz(4-tBu) = CC(C)(C)c1ccc(C(=O)OCC*)cc1; Ethyl(2-decanoyloxy) = CCCCCCCCCC(=O)OCC*; Ethyl(2-butanoyloxy) = CCCC(=O)OCC*; Ethyl(2-propionyloxy) = CCC(=O)OCC*; Ethyl(2-OPiv) = CC(C)(C)C(=O)OCC*; Ethyl(2-OBz) = O=C(OCC*)c1ccccc1; Dab = NCC[C@H](N)C(=O)O

What was measured:
[1] = test system: A. baumannii ATCC 19606; format: cell-based, Acinetobacter baumannii
Excerpt: (§1) All 81 compounds prepared in Examples 2 and 3 underwent screening against a panel of Gram-negative bacterium to assess their ability to inhibit bacterial growth. […] The median value is presented.

[2] = test system: P. aeruginosa ATCC 27853; format: cell-based, Pseudomonas aeruginosa
Excerpt: as §1

[3] = test system: E. coli ATCC MS8345; format: cell-based, Escherichia coli
Excerpt: as §1
Expansion of the polymyxin macrocycle by substituting […]) offered little advantage in antimicrobial activity but was generally well tolerated although for A. baumanni and P. aeruginosa this was detrimental.

[4] = test system: K. pneumoniae ATCC 33495; format: cell-based, Klebsiella pneumoniae
Excerpt: as §1

[5] = test system: K. pneumoniae ATCC 700603; format: cell-based, Klebsiella pneumoniae
Excerpt: as §1

[6] = test system: K. pneumoniae ATCC MS6671; format: cell-based, Klebsiella pneumoniae
Excerpt: as §1

[7] = test system: E. coli ATCC 25922; format: cell-based, Escherichia coli
Excerpt: as §1

[8] = colistin-resistant strain, median of triplicate

SMILES	MIC A. baumannii ATCC 19606 ([1]; ATCC 19606) [µg/mL]	MIC P. aeruginosa ATCC 27853 ([2]; ATCC 27853) [µg/mL]	MIC E. coli ATCC MS8345 ([3]; ATCC MS8345) [µg/mL]	MIC K. pneumoniae ATCC 33495 ([4]; ATCC 33495) [µg/mL]	MIC K. pneumoniae ATCC 700603 ([5]; ATCC 700603) [µg/mL]	MIC K. pneumoniae ATCC MS6671 ([6]; ATCC MS6671) [µg/mL]	MIC E. coli ATCC 25922 ([7]; ATCC 25922) [µg/mL]	MIC A. baumannii ATCC 19606 ([1]; median of triplicate) [µg/mL]	MIC P. aeruginosa ATCC 27853 ([2]; median of triplicate) [µg/mL]	MIC E. coli ATCC MS8345 [3, 8] [µg/mL]	MIC K. pneumoniae ATCC 33495 ([4]; median of triplicate) [µg/mL]	MIC K. pneumoniae ATCC 700603 ([5]; median of triplicate) [µg/mL]	MIC K. pneumoniae ATCC MS6671 ([6]; median of triplicate) [µg/mL]	MIC E. coli ATCC 25922 ([7]; median of triplicate) [µg/mL]
CC(C)C[C@@H]1NC(=O)[C@@H](Cc2ccccc2)NC(=O)[C@H](CCN)NC(=O)[C@@H](NC(=O)[C@H](CCN)NC(=O)[C@@H](NC(=O)[C@H](CCN)NC(=O)[C@@H](N)CSCCOC(=O)C(C)(C)C)[C@@H](C)O)CCCCNC(=O)[C@H]([C@@H](C)O)NC(=O)[C@H](CCN)NC(=O)[C@H](CCN)NC1=O [Compound 26] (H-C(Ethyl(2-OPiv))[Dab]T[Dab]K[Dab][dF]L[Dab][Dab]T; lactam 5-C)	>32	>32	>32	0.5 (≈ 0.378 µM)	16 (≈ 12.1 µM)	>32	1 (≈ 0.756 µM)							
CC(C)C[C@@H]1NC(=O)[C@@H](Cc2ccccc2)NC(=O)[C@H](CCN)NC(=O)[C@@H](NC(=O)[C@H](CCN)NC(=O)[C@@H](NC(=O)[C@H](CCN)NC(=O)[C@@H](N)CSCCOC(=O)c2ccccc2)[C@@H](C)O)CCCCNC(=O)[C@H]([C@@H](C)O)NC(=O)[C@H](CCN)NC(=O)[C@H](CCN)NC1=O [Compound 27] (H-C(Ethyl(2-OBz))[Dab]T[Dab]K[Dab][dF]L[Dab][Dab]T; lactam 5-C)								>32	>32	>32	0.5 (≈ 0.372 µM)	2 to 4	>32	1 (≈ 0.745 µM)
CC(C)C[C@@H]1NC(=O)[C@@H](Cc2ccccc2)NC(=O)[C@H](CCN)NC(=O)[C@@H](NC(=O)[C@H](CCN)NC(=O)[C@@H](NC(=O)[C@H](CCN)NC(=O)[C@@H](N)CSCCOC(=O)c2ccc(C(C)(C)C)cc2)[C@@H](C)O)CCCCNC(=O)[C@H]([C@@H](C)O)NC(=O)[C@H](CCN)NC(=O)[C@H](CCN)NC1=O [Compound 28] (H-C(CH2CH2OBz(4-tBu))[Dab]T[Dab]K[Dab][dF]L[Dab][Dab]T; lactam 5-C)	4 (≈ 2.86 µM)	1 (≈ 0.715 µM)	32 (≈ 22.9 µM)	0.5 (≈ 0.357 µM)	4 (≈ 2.86 µM)	>32	2 (≈ 1.43 µM)							
CCCC(=O)OCCSC[C@H](N)C(=O)N[C@@H](CCN)C(=O)N[C@H](C(=O)N[C@@H](CCN)C(=O)N[C@H]1CCNC(=O)[C@H]([C@@H](C)O)NC(=O)[C@H](CCN)NC(=O)[C@H](CCN)NC(=O)[C@H](CC(C)C)NC(=O)[C@@H](Cc2ccccc2)NC(=O)[C@H](CCN)NC1=O)[C@@H](C)O [Compound 30] (H-C(Ethyl(2-butanoyloxy))[Dab]T[Dab][Dab][Dab][dF]L[Dab][Dab]T; lactam 5-C)	2 (≈ 1.56 µM)	2 (≈ 1.56 µM)	32 (≈ 25 µM)	0.125 (≈ 0.0976 µM)	0.5 (≈ 0.39 µM)	>32	0.5 (≈ 0.39 µM)							
CCCCCCCCCC(=O)OCCSC[C@H](N)C(=O)N[C@@H](CCN)C(=O)N[C@H](C(=O)N[C@@H](CCN)C(=O)N[C@H]1CCNC(=O)[C@H]([C@@H](C)O)NC(=O)[C@H](CCN)NC(=O)[C@H](CCN)NC(=O)[C@H](CC(C)C)NC(=O)[C@@H](Cc2ccccc2)NC(=O)[C@H](CCN)NC1=O)[C@@H](C)O [Compound 31] (H-C(Ethyl(2-decanoyloxy))[Dab]T[Dab][Dab][Dab][dF]L[Dab][Dab]T; lactam 5-C)	1 (≈ 0.733 µM)	1 (≈ 0.733 µM)	2 to 4	0.5 (≈ 0.366 µM)	4 (≈ 2.93 µM)	>32	2 (≈ 1.47 µM)							
CC(C)C[C@@H]1NC(=O)[C@@H](Cc2ccccc2)NC(=O)[C@H](CCN)NC(=O)[C@@H](NC(=O)[C@H](CCN)NC(=O)[C@@H](NC(=O)[C@H](CCN)NC(=O)[C@@H](N)CSCCOC(=O)C(C)(C)C)[C@@H](C)O)CCNC(=O)[C@H]([C@@H](C)O)NC(=O)[C@H](CCN)NC(=O)[C@H](CCN)NC1=O [Compound 32] (H-C(Ethyl(2-OPiv))[Dab]T[Dab][Dab][Dab][dF]L[Dab][Dab]T; lactam 5-C)	1 (≈ 0.772 µM)	1 (≈ 0.772 µM)	16 (≈ 12.4 µM)	0.125 (≈ 0.0966 µM)	0.5 (≈ 0.386 µM)	>32	0.25 (≈ 0.193 µM)							
CC(C)C[C@@H]1NC(=O)[C@@H](Cc2ccccc2)NC(=O)[C@H](CCN)NC(=O)[C@@H](NC(=O)[C@H](CCN)NC(=O)[C@@H](NC(=O)[C@H](CCN)NC(=O)[C@@H](N)CSCCOC(=O)c2ccc(C(C)(C)C)cc2)[C@@H](C)O)CCNC(=O)[C@H]([C@@H](C)O)NC(=O)[C@H](CCN)NC(=O)[C@H](CCN)NC1=O [Compound 34] (H-C(CH2CH2OBz(4-tBu))[Dab]T[Dab][Dab][Dab][dF]L[Dab][Dab]T; lactam 5-C)	1 (≈ 0.73 µM)	0.5 (≈ 0.365 µM)	1 (≈ 0.73 µM)	0.25 (≈ 0.182 µM)	1 (≈ 0.73 µM)	>32	1 (≈ 0.73 µM)							
CCCC(=O)OCCSC[C@@H]1NC(=O)[C@@H](Cc2ccccc2)NC(=O)[C@H](CCN)NC(=O)[C@@H](NC(=O)[C@H](CCN)NC(=O)[C@@H](NC(=O)[C@H](CCN)NC(=O)[C@@H](N)CSCCOC(=O)CCC)[C@@H](C)O)CCNC(=O)[C@H]([C@@H](C)O)NC(=O)[C@H](CCN)NC(=O)[C@H](CCN)NC1=O [Compound 36] (H-C(Ethyl(2-butanoyloxy))[Dab]T[Dab][Dab][Dab][dF]C(Ethyl(2-butanoyloxy))[Dab][Dab]T; lactam 5-C)	16 (≈ 11.6 µM)	16 (≈ 11.6 µM)	32 (≈ 23.1 µM)	0.25 to 0.5	0.25 to 0.5	>32	0.25 (≈ 0.181 µM)							
CCCCCCCCCC(=O)OCCSC[C@@H]1NC(=O)[C@@H](Cc2ccccc2)NC(=O)[C@H](CCN)NC(=O)[C@@H](NC(=O)[C@H](CCN)NC(=O)[C@@H](NC(=O)[C@H](CCN)NC(=O)[C@@H](N)CSCCOC(=O)CCCCCCCCC)[C@@H](C)O)CCNC(=O)[C@H]([C@@H](C)O)NC(=O)[C@H](CCN)NC(=O)[C@H](CCN)NC1=O [Compound 37] (H-C(Ethyl(2-decanoyloxy))[Dab]T[Dab][Dab][Dab][dF]C(Ethyl(2-decanoyloxy))[Dab][Dab]T; lactam 5-C)	4 (≈ 2.58 µM)	4 (≈ 2.58 µM)	4 (≈ 2.58 µM)	2 (≈ 1.29 µM)	4 (≈ 2.58 µM)	>32	2 to 4							
C[C@@H](O)[C@@H]1NC(=O)[C@H](CCN)NC(=O)[C@H](CCN)NC(=O)[C@H](CSCCOC(=O)c2ccc(C(C)(C)C)cc2)NC(=O)[C@@H](Cc2ccccc2)NC(=O)[C@H](CCN)NC(=O)[C@@H](NC(=O)[C@H](CCN)NC(=O)[C@@H](NC(=O)[C@H](CCN)NC(=O)[C@@H](N)CSCCOC(=O)c2ccc(C(C)(C)C)cc2)[C@@H](C)O)CCNC1=O [Compound 40] (H-C(CH2CH2OBz(4-tBu))[Dab]T[Dab][Dab][Dab][dF]C(CH2CH2OBz(4-tBu))[Dab][Dab]T; lactam 5-C)	2 (≈ 1.28 µM)	2 (≈ 1.28 µM)	4 (≈ 2.56 µM)	2 to 4	2 (≈ 1.28 µM)	>32	2 to 4							
C[C@@H](O)[C@@H]1NC(=O)[C@H](CCN)NC(=O)[C@H](CCN)NC(=O)[C@H](CSCCOC(=O)c2ccccc2)NC(=O)[C@@H](Cc2ccccc2)NC(=O)[C@H](CCN)NC(=O)[C@@H](NC(=O)[C@H](CCN)NC(=O)[C@@H](NC(=O)[C@H](CCN)NC(=O)[C@@H](N)CSCCOC(=O)c2ccc(C(C)(C)C)cc2)[C@@H](C)O)CCNC1=O [Compound 41] (H-C(CH2CH2OBz(4-tBu))[Dab]T[Dab][Dab][Dab][dF]C(Ethyl(2-OBz))[Dab][Dab]T; lactam 5-C)								2 (≈ 1.33 µM)	2 (≈ 1.33 µM)	4 (≈ 2.65 µM)	2 to 4	1 to 2	>32	1 (≈ 0.663 µM)
CCC(=O)OCCSC[C@H](N)C(=O)N[C@@H](CCN)C(=O)N[C@H](C(=O)N[C@@H](CCN)C(=O)N[C@H]1CCNC(=O)[C@H]([C@@H](C)O)NC(=O)[C@H](CCN)NC(=O)[C@H](CCN)NC(=O)[C@H](CSCCOC(=O)C(C)(C)C)NC(=O)[C@@H](Cc2ccccc2)NC(=O)[C@H](CCN)NC1=O)[C@@H](C)O [Compound 43] (H-C(Ethyl(2-propionyloxy))[Dab]T[Dab][Dab][Dab][dF]C(Ethyl(2-OPiv))[Dab][Dab]T; lactam 5-C)	>32	>32	>32	16 (≈ 11.6 µM)	2 to 4	>32	2 (≈ 1.44 µM)							
